These results are taken from paper PMC8222276 (Communications Biology, 2021).

Each structure is given as a SMILES string.

For assay [1], the system named is HUAECs. The experiment in a line: cell proliferation (72 h) of HUAECs. Type of assay: cell-based, human. The note with it: HUAEC. The protocol: (§1) Both endothelial cell lines and HCMs were seeded at a density of 2500 cells/well in a clear flat bottom 96-well plate (Corning, UK) and incubated at 37 °C in 5% CO2. After 24 h, cells were exposed to test compounds or vehicle, in complete endothelial cell growth media (HUVECs) or myocyte growth media (HCMs). Cells were incubated for a further 72 h at 37 °C in 5% CO2. After 72 h incubation, 5 μl of Cell Counting Kit–8 (CCK-8, Sigma, UK) was added to each well and cells were then incubated for another 2 h at 37 °C in 5% CO2 and in the dark[61]. The absorbance of each well was measured using a Mithras LB940 microplate reader with an excitation of 450 nm. The absorbance is directly proportional to the number of viable cells. Cell proliferation was calculated as a percentage of number of cells treated with vehicle alone.
(§2) All sample sizes were determined, and data analysed, in accordance with the guidelines described by Curtis M et al.[65]. All experiments were appropriately controlled using ‘system pathway’ agonists. If any of these pathway controls generated inappropriate responses, then the entire data set was removed from analysis. […] Data analysis for cAMP accumulation, Ca^2+i mobilisation, NO accumulation, pERK1/2 activation, and cell proliferation assays were performed in GraphPad Prism 8.4 (GraphPad Software, San Diego). Data were fitted to obtain concentration–response curves using either the three-parameter logistic equation using to obtain values of Emax and pEC50 or the operational model of agonism. Statistical differences were analysed using one-way ANOVA followed by Dunnett’s post-hoc (for comparisons amongst more than two groups) or unpaired Student’s t test with Welch’s correction (for comparison between two groups). To account for the day-to-day variation experienced from the cultured cells, we used the maximal level of cAMP accumulation from cells in response to 100 μM forskolin stimulation was used as a reference, 10 μM ionomycin for Ca^2+i assays, 10 μM phorbol 12-myristate 13-acetate (PMA) for pERK1/2 activation, 10 μM acetylcholine for NO production and 10 μM VEGF for cell proliferation. […] Where appropriate the operational model for receptor agonism[27] was used to obtain efficacy (τ) and equilibrium disassociation constant (KA) values. In both cases, this normalisation removes the variation due to differences in days but retains the variance for control values. The means of individual experiments were combined to generate the curves shown. Having obtained values for τ and KA these were then used to quantify signalling bias as the change in Log(τ/KA)[19],[28]. Error for this composite measure was propagated by applying Eq. 1.1 PooledSEM=(SEMA)^2+(SEMB)^2 Where, SEMA and SEMB are the standard error of measurement A and B.
(1 picture or pasted object on this page, not shown here)

Assay [2] has as its system heart. The following applies: cited from earlier work.
For assay [3], the target named is T1, AM1 receptor (CLR-RAMP2) in HUVECs (Homo sapiens, UniProt O60895+Q16602).
T1 construct: HUVECs specifically express the AM1 receptor alone; host or cells: primary HUVECs
The experiment in a line: total nitric oxide production in HUVECs. Type of assay: cell-based. The following applies: HUVEC. The protocol:
Data are analysed using a three-parameter non-linear regression curve or the operational model of receptor agonism. g–h Signalling bias plots were calculated as ∆Log(τ/KA) (g) or ∆∆Log(τ/KA) (h) for each agonist and for each signalling pathway. […] Solid arrows indicate known pathways. Dashed arrows represent possible pathways.
Endothelial cells and HCMs were cultured as above. 24 h prior to assay cells were plated on Costar 96-well black clear bottom plates at 40,000 cells/well. The assay was performed according to the manufacturer’s protocol. Briefly, cells pre-incubated with NO dye and assay buffer 1 (Fluorometric Nitric Oxide Assay Kit, Abcam, UK) for 30 min at 37 °C in 5% CO2. Any inhibitors requiring 30 min pre-treatment (YM/L-NAME/DMSO control) were added at this point. Ligand stimulation occurred immediately after this for 15 min at 37 °C in 5% CO2. Stain and ligand solution was removed, assay buffer II was added, and wells were read immediately. The absorbance was measured using a Tecan T200 (Thermo Fisher Scientific UK) reader with an excitation/emission of 540/590 nm. Endothelial cell responses were normalised to 10 μM acetylcholine. HCM responses were normalised to 10 μM isoproterenol[63],[64].
as §2

The target in assay [4] is T1, AM1 receptor (CLR-RAMP2) in HUVECs. The experiment in a line: signalling bias analysis (operational model) in HUVECs. The following applies: HUVEC; ΔΔLog(τ/KA), reference AM and cAMP. The protocol: All sample sizes were determined, and data analysed, in accordance with the guidelines described by Curtis M et al.[65]. All experiments were appropriately controlled using ‘system pathway’ agonists. If any of these pathway controls generated inappropriate responses, then the entire data set was removed from analysis. […] Data analysis for cAMP accumulation, Ca^2+i mobilisation, NO accumulation, pERK1/2 activation, and cell proliferation assays were performed in GraphPad Prism 8.4 (GraphPad Software, San Diego). Data were fitted to obtain concentration–response curves using either the three-parameter logistic equation using to obtain values of Emax and pEC50 or the operational model of agonism. Statistical differences were analysed using one-way ANOVA followed by Dunnett’s post-hoc (for comparisons amongst more than two groups) or unpaired Student’s t test with Welch’s correction (for comparison between two groups). […] Having obtained values for τ and KA these were then used to quantify signalling bias as the change in Log(τ/KA)[19],[28]. […]

The target of assay [5] is T2, AM1 receptor (CLR-RAMP2) in HUAECs (Homo sapiens, UniProt O60895+Q16602).
T2 construct: host or cells: primary HUAECs
The experiment in a line: cAMP accumulation in HUAECs. Type of assay: cell-based. As for the experimental part:
All primary cell lines were cultured as above. On the day of the experiment media was removed and cells washed with PBS, before being dissociated with Trypsin-EDTA 0.05% (Gibco, UK) and then resuspended in PBS/BSA (0.1%) (Sigma, UK). Cells were immediately plated for use in cAMP assay as per the manufacturer’s instructions, reagents used were provided by the LANCE® cAMP detection assay kit (PerkinElmer, Boston, MA, USA), in 384 well optiplates (PerkinElmer (Boston, MA, USA)) at 2000 cells/well in 5 μl aliquots. […] Cells were incubated with compound for 30 min prior to adding detection buffer[28],[60]. Plates were incubated for a further 60 min (room temperature) and then read on a plate reader (Mithras LB 940 microplate reader (Berthold technologies, Germany)). All responses were normalised to 100μM forskolin (Tocris, UK). Antagonist studies were performed in the same way through co-stimulation of the relevant concentration. Alongside control-treated cell. Experiments with PTX (Sigma, UK) required pretreatment (16 h) prior to assays.
as §2, with “The means of individual experiments were combined to generate the curves shown.” left out, “Error for this composite measure was propagated by applying Eq. 1.1 PooledSEM=(SEMA)^2+(SEMB)^2 Where, SEMA and SEMB are the standard error of measurement A and B.” left out

The subject of assay [6] is human cardiomyocytes (HCMs). Kind of assay: cell proliferation (72 h) of HCMs. The following applies: HCM. The assay is classed as cell-based. The protocol:
Data are analysed using a three-parameter non-linear regression curve or the operational model of receptor agonism. g, h Signalling bias plots were calculated as ∆Log(τ/KA) (g) or ∆∆Log(τ/KA) (h) for each agonist and for each signalling pathway. […] All data represent mean ± SEM for n repeats.
as §1, §2

[7] abbreviates: proliferation, 72 h, CCK-8, mean ± SEM.
Setting [8] is: proliferation, 72 h, mean ± SEM of 3-6 data sets.
The mark [9] stands for this setting: proliferation, operational model, mean ± SEM.
Where [10] appears, read: NO, operational model, mean ± SEM.
Where [11] appears, read: cAMP, HUAEC, operational model, mean ± SEM.

T2 sequence (Q16602 23-461): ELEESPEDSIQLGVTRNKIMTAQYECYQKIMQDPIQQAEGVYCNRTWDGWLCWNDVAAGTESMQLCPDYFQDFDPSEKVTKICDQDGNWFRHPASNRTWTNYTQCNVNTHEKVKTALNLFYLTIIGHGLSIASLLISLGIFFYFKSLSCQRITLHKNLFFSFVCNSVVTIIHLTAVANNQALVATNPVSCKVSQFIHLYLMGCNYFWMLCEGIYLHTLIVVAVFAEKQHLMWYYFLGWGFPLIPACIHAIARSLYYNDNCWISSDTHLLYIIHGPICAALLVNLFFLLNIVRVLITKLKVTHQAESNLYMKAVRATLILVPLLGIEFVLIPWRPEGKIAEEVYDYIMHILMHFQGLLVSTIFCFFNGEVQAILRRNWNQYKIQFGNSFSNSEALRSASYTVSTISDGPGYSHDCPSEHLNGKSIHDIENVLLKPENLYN
T2 sequence (O60895 43-175): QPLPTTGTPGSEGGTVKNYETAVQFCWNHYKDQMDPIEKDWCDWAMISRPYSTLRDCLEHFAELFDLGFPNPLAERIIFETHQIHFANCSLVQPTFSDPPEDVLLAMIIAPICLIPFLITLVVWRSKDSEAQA
T1 sequence (Q16602 23-461): as the sequence (Q16602 23-461) above
T1 sequence (O60895 43-175): as the sequence (O60895 43-175) above

Turning to `CSCC[C@H](NC(=O)[C@H](CC(C)C)NC(=O)[C@H](CCC(N)=O)NC(=O)[C@H](Cc1c[nH]c2ccccc12)NC(=O)[C@H](CC(C)C)NC(=O)[C@H](CCCNC(=N)N)NC(=O)[C@H](Cc1c[nH]cn1)NC(=O)[C@H](CO)NC(=O)[C@H](CC(C)C)NC(=O)[C@H](CC(N)=O)NC(=O)[C@H](CCC(N)=O)NC(=O)[C@@H](NC(=O)[C@H](CCC(N)=O)NC(=O)[C@@H]1CSSC[C@H](NC(=O)CNC(=O)[C@@H](NC(=O)[C@H](CCCNC(=N)N)NC(=O)[C@H](CC(C)C)NC(=O)[C@H](CC(C)C)NC(=O)[C@H](CCC(N)=O)NC(=O)[C@H](C)NC(=O)[C@H](CCC(N)=O)NC(=O)[C@@H](N)[C@@H](C)O)C(C)C)C(=O)N[C@@H](C(C)C)C(=O)N[C@@H](CC(C)C)C(=O)NCC(=O)N[C@@H]([C@@H](C)O)C(=O)N1)C(C)C)C(=O)NCC(=O)N1CCC[C@H]1C(=O)N[C@@H](C)C(=O)NCC(=O)N[C@@H](CCCNC(=N)N)C(=O)N[C@@H](CCC(N)=O)C(=O)N[C@@H](CC(=O)O)C(=O)N[C@@H](CO)C(=O)N[C@@H](C)C(=O)N1CCC[C@H]1C(=O)N[C@H](C(=O)N[C@@H](CC(=O)O)C(=O)N1CCC[C@H]1C(=O)N[C@@H](CO)C(=O)N[C@@H](CO)C(=O)N1CCC[C@H]1C(=O)N[C@@H](Cc1c[nH]cn1)C(=O)N[C@@H](CO)C(=O)N[C@@H](Cc1ccc(O)cc1)C(N)=O)C(C)C` [AM2, adrenomedullin 2], the “Transducer coefficient Log(τ/KA)” value is listed as 5.81±1.89 in assay [1] (Growth, calculated from Table S1); 6.80±0.17 in assay [3] (NO, calculated from Table S1); 6.03±0.22 in assay [5] (cAMP, HUAEC, calculated from Table S1); 5.78±0.60 in assay [6] (Growth, calculated from Table S2). For the same molecule, the Emax was determined as 111.68±1.62% in assay [1] (setting [7]), 82.1 ± 4.62% in assay [3], 17.5 ± 1.21% in assay [5] and 114.68±3.58% in assay [6] (setting [7]). Moreover, the negative-log EC50 (pEC50) in assay [1] (setting [8]) turned out to be 6.87±0.48; in assay [6] (setting [8]), 6.48±0.58. For the same molecule, the logτ in assay [1] (setting [9]) was -1.10±0.26; in assay [3] (setting [10]), 0.65±0.09; in assay [5] (setting [11]), -0.75±0.05; in assay [6] (setting [9]), -0.60±0.12. Also, the pKA in assay [1] (setting [9]) came to 6.91±1.87; in assay [3] (setting [10]) it was 6.15±0.15; in assay [5] (setting [11]) it was 6.78±0.21; in assay [6] (setting [9]), 6.38±0.59. Moreover, in assay [2], the “effect of protein kinase inhibitors on contraction effect” value was “blocked by both inhibitors of both protein kinase A and C”. Further, the “order of potencies for NO synthesis” value in assay [3] is on record as “order of potencies AM2 > AM > CGRP”. Also, the agonist bias result in assay [4] was “biased towards Ca^2+i mobilisation and NO production”.
